Reference: patent publication US20150374755A1, “Treated Cells and Therapeutic Uses” (NHS BLOOD & TRANSPLANT, priority 2013, published 2015)

System: CD4 and CD8 T lymphocytes
Assay: Suppression of stimulated T cell proliferation (CFSE) by drug pre-incubated MSC
Format: cell-based, human
Conditions: MSC pre-incubated with 50 ng/ml; FIG. 6
Experimental: MSC derived from (FIG. 1A,E) bone marrow (BM) or (FIG. 1B-D) two independent umbilical cord (UC) preparations (WJ6060:FIG. 1B-C; WJ24-0: FIG. 1D) were incubated with Rapamycin overnight at concentrations from 0.4 to 50 ng/ml, or without drug (control (Ctl)). The MSC were washed, trypsinised, and plated in fresh medium without Rapamycin at 1, 5, and 25 k per well in 96 well plates. After 2-4 hours, human adult peripheral blood mononuclear cells (MNC) labelled with carboxyfluorescein succinimidyl ester (CFSE) were added, and the T lymphocytes therein were stimulated to proliferate with Phytohemagglutinin (PHA) (FIG. 1A-D) or anti-CD3, CD28 activation beads (FIG. 1E). Proliferation levels were determined after 3 days as described in the Methods section. […]
After 3-4 (PHA or bead stimulation) or 5-6 days (allostimulation) the cultures were analysed by flow cytofluorometry after staining for CD3 and CD4, and the CFSE dye-dilution profiles of CD3+CD4+ (CD4) and CD3+CD4- (CD8) lymphocytes were used to calculate proliferation indices (Lyons (2000)). To normalise the level of proliferation between experiments, the proliferation indices were calculated as: (proliferation index for condition X−proliferation index for unstimulated cells)/(proliferation index for PHA or bead stimulated control cells−proliferation index for unstimulated cells). […]

## CCC(=O)N1CCN(c2ccc(-n3c(=O)ccc4cnc5ccc(-c6cnc7ccccc7c6)cc5c43)cc2C(F)(F)F)CC1 [Torin 1]
  super-suppression by pre-incubated MSC: no significant super-suppression
